# Experimental data as given in paper PMC11079064, “Discovery of a brain penetrant small molecule antagonist targeting LPA1 receptors to reduce neuroinflammation and promote remyelination in multiple sclerosis” (Scientific Reports, 2024).
# Entries after “also recorded” stand apart in the source; their conditions may differ.
# Columns and labels:
# [1] = system: ROCK (Rho-associated kinase); design: method as in PMID 25289646; details: cited from earlier work
# [2] = molecular target: T1, autotaxin (Rattus norvegicus, UniProt Q64610); experiment: LPA species in macrophage-conditioned media; format: cell-based; details: 1 µM, 48 h
# T1 construct: Male Sprague Dawley rat macrophages were isolated from intraperitoneal lavage fluid; endogenous in cells; host or cells: primary rat peritoneal macrophages
# Method: Autotaxin (ATX), an enzyme responsible for LPA synthesis, is elevated in CSF samples from multiple sclerosis patients and may be an underlying source of elevated LPA levels in the CNS during disease. […] To confirm the release of LPA from these macrophages, macrophage-conditioned media was taken 30 min or 48 h after plating and various LPA species were measured by mass spectrometry.
# Rat macrophages were cultured as described above. Media from wells at 30 m or 48 h post-plating were taken. Media from macrophages treated with 1 µM PF-8380 (autotaxin inhibitor, Sigma, St Louis, MO) for 48 h was also collected. For LPA determination, 20 µl of culture media was aliquoted into glass 12 × 75 mm culture test tubes. 500 µl of 30 mM citric acid/40 mM disodium phosphate buffer (pH 4.0) with 1 ng/ml 17:0 LPA as an internal standard (IS) were also added to the test tubes. 2 ml of 1-butanol were then added to the test tubes, tubes covered with parafilm, vortexed for 10 s, and centrifuged for 10 min at 1000g at 4 °C. After centrifugation, the top layers were transferred to clean test tubes. The bottom layers were extracted again with 1 ml of water-saturated butanol. The test tubes were covered with parafilm, vortexed for 10 s, and centrifuged for 10 min at 1000g at 4 °C. […] After reconstitution, the samples were analyzed by LC–MS/MS using an AB Sciex 6500 + . […]
# [3] = design: method as in PMID 34969771, PMID 30201408; details: cited from earlier work
# [4] = system: microglia; experiment: LPA-induced microglial activation in hippocampal slices; format: cell-based, mouse; details: AM152, 10 µM LPA
# Method: Microglial activation was then triggered by the addition of 10 µM LPA, slices incubated for 3 additional hours, then fixed. Slices were immunostained against IBA1 and microglial perimeters were measured as a mean of differentiating between ramified/resting versus rounded/activated microglia.
# Brains were harvested from mice (postnatal day 20, Charles River). […] 400 µm thick coronal slices were cut on a McIlwain tissue chopper and returned to dissection media and separated manually. […] Slices were incubated for 2 h at 37 °C (4 slices per condition). Microglial activation was initiated by adding LPA (18:1, Avanti Polar Lipids) to a final concentration of 10 µM and incubated for 3 h. Slices were then fixed in formalin and for 2 h.
# For immunohistochemistry, slices were washed for 3 × 15 min in 0.5% Triton-X100 and DPBS. Slices were then stained using IBA-1 antibody (Thermo Scientific) in 10% normal goat serum with 0.5% Triton-X100 in DPBS overnight on a rocker. Slices were then washed in 0.5% Triton-X100 in DPBS 3 × 15 min. Goat anti-mouse Alexa 564 (1:500, Invitrogen, Carlsbad, CA) and […] (Invitrogen, Carlsbad, CA) were diluted in DPBS with 0.5% Triton-X100 and incubated for 2h. Slices were washed 3 × 15 min in DPBS with 0.5% Triton-X100, mounted with Fluoromount and imaged on a Nikon A1R confocal microscope.
smiles,measurement,setting,value
O=S(=O)(c1cccc2cnccc12)N1CCCNCC1 [fasudil],effect on OPC differentiation,[1],leads to OPC differentiation
O=C(CCN1CCN(C(=O)OCc2cc(Cl)cc(Cl)c2)CC1)c1ccc2[nH]c(=O)oc2c1 [PF-8380],effect on increase of LPA species in macrophage-conditioned media,[2],prevents the induction of several LPA species; also recorded: inhibited
CCCN(C)C(=O)OCc1c(-c2ccc(O[C@H]3CCC[C@H](C(=O)O)C3)c(C)n2)nnn1C [BMS-986278],Phase 1 tolerability,[3],demonstrated Phase 1 tolerability
"Cc1noc(-c2ccc(-c3ccc(C4(C(=O)O)CC4)cc3)cc2)c1NC(=O)O[C@H](C)c1ccccc1 [AM152, reference compound]",Phase 1 tolerability,[3],demonstrated Phase 1 tolerability
same,effect on LPA-induced decrease in microglial perimeter length,[4],inhibits microglial activation; also recorded: inhibited
